Assay results from ChEMBL document CHEMBL4334438, “Discovery of novel glycogen synthase kinase-3α inhibitors: Structure-based virtual screening, preliminary SAR and biological evaluation for treatment of acute myeloid leukemia” (Eur J Med Chem, 2019).

Assays:
[1] = target: Tyrosine-protein kinase Fyn (Homo sapiens) (UniProt P06241); test: Inhibition of recombinant full length human Fyn assessed as residual activity at 1 uM using KVEKIGEGTYGVVYK as substrate at 40 mins in presence of [gamma-33ATP] by scintillation counting based radiometry assay relative to control
[2] = test system: Epidermal growth factor receptor (Homo sapiens), P00533 [L858R,T790M]; test: Inhibition of recombinant human EGFR T790M/L858R mutant (696 to end residues) assessed as residual activity at 1 uM using poly(Glu, Tyr) 4:1 as substrate at 40 mins in presence of [gamma-33ATP] by scintillation counting based radiometry assay relative to control
[3] = target: Rhodopsin kinase GRK1 (Homo sapiens) (UniProt Q15835); test: Inhibition of recombinant full length human GRK1 assessed as residual activity at 1 uM using KKKKERLLDDRHDSGLDSMKDEE as substrate at 40 mins in presence of [gamma-33ATP] by scintillation counting based radiometry assay relative to control
[4] = test system: TGF-beta receptor type-1 (Homo sapiens), P36897 [T204D]; test: Inhibition of human TGFBR1 T204D mutant (200 to end residues) assessed as residual activity at 1 uM using casein as substrate measured after 40 mins in presence of [gamma33P]ATP by scintillation counting method relative to control
[5] = target: Serine/threonine-protein kinase Nek6 (Homo sapiens) (UniProt Q9HC98); test: Inhibition of recombinant human NEK6 (2 to end residues) assessed as residual activity at 1 uM using FLAKSFGSPNRAYKK as substrate measured after 40 mins in presence of [gamma33P]ATP by scintillation counting method relative to control
Sequence of Serine/threonine-protein kinase Nek6 (Homo sapiens) (Q9HC98 whole entry): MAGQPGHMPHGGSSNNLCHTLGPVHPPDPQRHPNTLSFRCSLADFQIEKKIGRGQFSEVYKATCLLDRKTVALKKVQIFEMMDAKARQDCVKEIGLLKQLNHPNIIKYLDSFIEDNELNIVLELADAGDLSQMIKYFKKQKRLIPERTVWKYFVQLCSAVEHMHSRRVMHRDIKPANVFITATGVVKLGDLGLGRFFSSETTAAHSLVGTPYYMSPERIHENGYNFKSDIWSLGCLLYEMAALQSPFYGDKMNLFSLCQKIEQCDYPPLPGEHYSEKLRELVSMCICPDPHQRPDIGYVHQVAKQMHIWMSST

[6] = target: Cyclin-dependent kinase 5/CDK5 activator 1 (Homo sapiens) (UniProt Q00535+Q15078); test: Inhibition of recombinant full length human CDK5/p25 assessed as residual activity at 1 uM using histone H1 as substrate incubated for 40 mins in presence of [gamma-33ATP] by scintillation counting based radiometry assay relative to control; assay type: protein-complex assay
[7] = target: G protein-coupled receptor kinase 5 (Homo sapiens) (UniProt P34947); test: Inhibition of recombinant full length human GRK5 assessed as residual activity at 1 uM using casein as substrate at 40 mins in presence of [gamma-33ATP] by scintillation counting based radiometry assay relative to control
[8] = target: Serine/threonine-protein kinase SIK2 (Homo sapiens) (UniProt Q9H0K1); test: Inhibition of recombinant human SIK2 (1 to 276 residues) assessed as residual activity at 1 uM using KKKVSRSGLYRSPSMPENLNRPR as substrate measured after 40 mins in presence of [gamma33P]ATP by scintillation counting method relative to control
[9] = test system: Glycogen synthase kinase-3 alpha (Homo sapiens), P49840 [UNDEFINED MUTATION]; test: Inhibition of human GSK-3alpha S449A mutant (2 to end residues) assessed as residual activity at 1 uM using phospho GS2 peptide as substrate after 40 mins by [gamma-33ATP] radiometric assay
[10] = target: Protein kinase C alpha type (Homo sapiens) (UniProt P17252); test: Inhibition of recombinant human full length PKCalpha assessed as residual activity at 1 uM using histone H1 as substrate measured after 40 mins in presence of [gamma33P]ATP by scintillation counting method relative to control
[11] = test system: Discoidin domain-containing receptor 2 (Homo sapiens), Q16832 [UNDEFINED MUTATION]; test: Inhibition of recombinant human DDR2 S642A mutant (467 to end residues) assessed as residual activity at 1 uM using KKSRGDYMTMQIG as substrate at 40 mins in presence of [gamma-33ATP] by scintillation counting based radiometry assay relative to control
[12] = target: Dual specificity mitogen-activated protein kinase kinase 6 (Homo sapiens) (UniProt P52564); test: Inhibition of recombinant human MKK6 (4 to end residues) assessed as residual activity at 1 uM using unactive SAPK2a as substrate measured after 40 mins in presence of [gamma33P]ATP by scintillation counting method
Sequence of Dual specificity mitogen-activated protein kinase kinase 6 (Homo sapiens) (P52564 whole entry): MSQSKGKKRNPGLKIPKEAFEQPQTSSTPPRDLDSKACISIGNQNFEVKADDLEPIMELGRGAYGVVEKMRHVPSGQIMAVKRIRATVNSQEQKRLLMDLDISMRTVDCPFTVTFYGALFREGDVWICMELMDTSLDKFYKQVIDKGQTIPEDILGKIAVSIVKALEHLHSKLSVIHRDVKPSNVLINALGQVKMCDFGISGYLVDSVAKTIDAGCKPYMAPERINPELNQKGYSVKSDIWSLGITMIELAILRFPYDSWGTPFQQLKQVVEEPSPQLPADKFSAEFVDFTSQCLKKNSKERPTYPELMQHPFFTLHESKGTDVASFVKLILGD

[13] = target: Calcium/calmodulin-dependent protein kinase type 1D (Homo sapiens) (UniProt Q8IU85); test: Inhibition of recombinant full length human CaMK1delta assessed as residual activity at 1 uM […] incubated for 40 mins in presence of [gamma-33ATP] by scintillation counting based radiometry assay relative to control
[14] = target: Serine/threonine-protein kinase BRSK1 (Homo sapiens) (UniProt Q8TDC3); test: Inhibition of recombinant human BRSK1 ( 2 to end residues) assessed as residual activity at 1 uM using KKKVSRSGLYRSPSMPENLNRPR as substrate incubated for 40 mins in presence of [gamma-33ATP] by scintillation counting based radiometry assay relative to control
Sequence of Serine/threonine-protein kinase BRSK1 (Homo sapiens) (Q8TDC3 whole entry): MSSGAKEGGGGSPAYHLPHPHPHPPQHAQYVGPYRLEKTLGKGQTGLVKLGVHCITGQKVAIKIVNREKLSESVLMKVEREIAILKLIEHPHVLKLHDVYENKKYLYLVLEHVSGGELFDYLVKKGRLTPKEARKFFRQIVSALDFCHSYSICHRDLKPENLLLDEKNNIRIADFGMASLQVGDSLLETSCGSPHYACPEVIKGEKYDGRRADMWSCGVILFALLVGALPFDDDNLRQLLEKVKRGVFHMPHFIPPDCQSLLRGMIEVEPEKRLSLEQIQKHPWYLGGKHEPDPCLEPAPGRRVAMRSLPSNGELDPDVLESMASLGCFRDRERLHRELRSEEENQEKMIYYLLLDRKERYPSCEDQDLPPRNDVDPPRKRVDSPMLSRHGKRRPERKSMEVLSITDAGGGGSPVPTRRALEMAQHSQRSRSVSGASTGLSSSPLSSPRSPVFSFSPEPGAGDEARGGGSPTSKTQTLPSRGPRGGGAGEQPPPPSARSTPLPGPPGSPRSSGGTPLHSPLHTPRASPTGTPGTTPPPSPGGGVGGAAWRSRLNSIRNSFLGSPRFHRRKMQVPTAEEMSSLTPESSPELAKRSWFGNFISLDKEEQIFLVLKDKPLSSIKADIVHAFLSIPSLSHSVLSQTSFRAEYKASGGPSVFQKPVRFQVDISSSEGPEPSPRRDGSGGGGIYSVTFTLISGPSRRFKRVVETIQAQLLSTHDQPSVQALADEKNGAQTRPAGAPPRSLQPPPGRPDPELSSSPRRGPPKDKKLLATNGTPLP

[15] = target: Ribosomal protein S6 kinase alpha-1 (Homo sapiens) (UniProt Q15418); test: Inhibition of recombinant full length human Rsk1 assessed as residual activity at 1 uM using KKKNRTLSVA as substrate measured after 40 mins in presence of [gamma33P]ATP by scintillation counting method relative to control
Sequence of Ribosomal protein S6 kinase alpha-1 (Homo sapiens) (Q15418 whole entry): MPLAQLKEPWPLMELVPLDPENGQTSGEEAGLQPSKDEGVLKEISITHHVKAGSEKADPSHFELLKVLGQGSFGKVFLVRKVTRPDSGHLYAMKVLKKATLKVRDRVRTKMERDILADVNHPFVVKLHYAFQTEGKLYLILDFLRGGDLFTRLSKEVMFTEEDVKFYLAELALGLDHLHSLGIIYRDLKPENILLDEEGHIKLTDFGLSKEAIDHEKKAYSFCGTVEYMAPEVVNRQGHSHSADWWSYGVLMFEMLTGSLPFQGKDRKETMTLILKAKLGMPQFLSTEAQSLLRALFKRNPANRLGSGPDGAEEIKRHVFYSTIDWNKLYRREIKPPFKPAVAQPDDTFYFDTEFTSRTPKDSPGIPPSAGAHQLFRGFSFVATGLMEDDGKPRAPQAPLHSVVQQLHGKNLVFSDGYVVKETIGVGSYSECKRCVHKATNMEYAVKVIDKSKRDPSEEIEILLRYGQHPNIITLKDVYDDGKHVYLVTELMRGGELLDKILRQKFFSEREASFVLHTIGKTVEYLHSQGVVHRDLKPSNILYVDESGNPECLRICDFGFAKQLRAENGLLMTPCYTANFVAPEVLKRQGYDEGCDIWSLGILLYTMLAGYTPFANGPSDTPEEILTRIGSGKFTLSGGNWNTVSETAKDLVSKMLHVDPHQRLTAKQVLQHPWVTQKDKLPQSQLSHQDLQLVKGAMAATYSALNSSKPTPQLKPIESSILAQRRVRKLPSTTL

[16] = target: cGMP-dependent protein kinase 2 (Homo sapiens) (UniProt Q13237); test: Inhibition of recombinant full-length human PRKG2 assessed as residual activity at 1 uM using KKLRRTLSFAEPG as substrate measured after 40 mins in presence of [gamma33P]ATP by scintillation counting method relative to control
Sequence of cGMP-dependent protein kinase 2 (Homo sapiens) (Q13237 whole entry): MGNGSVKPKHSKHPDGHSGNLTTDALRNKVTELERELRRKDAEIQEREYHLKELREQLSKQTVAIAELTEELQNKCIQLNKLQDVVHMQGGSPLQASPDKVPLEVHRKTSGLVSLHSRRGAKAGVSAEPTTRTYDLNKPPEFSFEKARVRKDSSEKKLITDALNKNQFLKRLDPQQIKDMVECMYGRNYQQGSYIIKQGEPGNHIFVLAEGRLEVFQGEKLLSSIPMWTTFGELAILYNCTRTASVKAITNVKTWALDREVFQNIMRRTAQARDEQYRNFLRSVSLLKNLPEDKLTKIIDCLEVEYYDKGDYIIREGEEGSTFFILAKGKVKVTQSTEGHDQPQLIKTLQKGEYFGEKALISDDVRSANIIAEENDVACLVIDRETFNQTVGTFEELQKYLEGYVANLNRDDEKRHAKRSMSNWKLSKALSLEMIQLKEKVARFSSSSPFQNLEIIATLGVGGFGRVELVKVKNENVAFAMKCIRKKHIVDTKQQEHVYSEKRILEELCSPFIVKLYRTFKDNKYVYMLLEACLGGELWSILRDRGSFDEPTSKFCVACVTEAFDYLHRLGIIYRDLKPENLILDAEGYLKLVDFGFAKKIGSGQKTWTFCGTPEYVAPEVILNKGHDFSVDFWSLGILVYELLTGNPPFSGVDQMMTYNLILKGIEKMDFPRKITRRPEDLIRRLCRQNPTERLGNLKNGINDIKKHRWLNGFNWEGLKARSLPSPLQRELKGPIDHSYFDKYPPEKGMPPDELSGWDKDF

[17] = target: Calcium/calmodulin-dependent protein kinase type 1 (Homo sapiens) (UniProt Q14012); test: Inhibition of recombinant human CaMKIalpha (2 to end residues) assessed as residual activity at 1 uM […] incubated for 40 mins in presence of [gamma-33ATP] by scintillation counting based radiometry assay relative to control
[18] = target: Mitogen-activated protein kinase kinase kinase kinase 3 (Homo sapiens) (UniProt Q8IVH8); test: Inhibition of recombinant human MAP4K3 (1 to 291 residues) assessed as residual activity at 1 uM using RLGRDKYKTLRQIRQ as substrate incubated for 40 mins in presence of [gamma-33ATP by scintillation counting based radiometry assay relative to control
Sequence of Mitogen-activated protein kinase kinase kinase kinase 3 (Homo sapiens) (Q8IVH8 whole entry, the tested form may be a part): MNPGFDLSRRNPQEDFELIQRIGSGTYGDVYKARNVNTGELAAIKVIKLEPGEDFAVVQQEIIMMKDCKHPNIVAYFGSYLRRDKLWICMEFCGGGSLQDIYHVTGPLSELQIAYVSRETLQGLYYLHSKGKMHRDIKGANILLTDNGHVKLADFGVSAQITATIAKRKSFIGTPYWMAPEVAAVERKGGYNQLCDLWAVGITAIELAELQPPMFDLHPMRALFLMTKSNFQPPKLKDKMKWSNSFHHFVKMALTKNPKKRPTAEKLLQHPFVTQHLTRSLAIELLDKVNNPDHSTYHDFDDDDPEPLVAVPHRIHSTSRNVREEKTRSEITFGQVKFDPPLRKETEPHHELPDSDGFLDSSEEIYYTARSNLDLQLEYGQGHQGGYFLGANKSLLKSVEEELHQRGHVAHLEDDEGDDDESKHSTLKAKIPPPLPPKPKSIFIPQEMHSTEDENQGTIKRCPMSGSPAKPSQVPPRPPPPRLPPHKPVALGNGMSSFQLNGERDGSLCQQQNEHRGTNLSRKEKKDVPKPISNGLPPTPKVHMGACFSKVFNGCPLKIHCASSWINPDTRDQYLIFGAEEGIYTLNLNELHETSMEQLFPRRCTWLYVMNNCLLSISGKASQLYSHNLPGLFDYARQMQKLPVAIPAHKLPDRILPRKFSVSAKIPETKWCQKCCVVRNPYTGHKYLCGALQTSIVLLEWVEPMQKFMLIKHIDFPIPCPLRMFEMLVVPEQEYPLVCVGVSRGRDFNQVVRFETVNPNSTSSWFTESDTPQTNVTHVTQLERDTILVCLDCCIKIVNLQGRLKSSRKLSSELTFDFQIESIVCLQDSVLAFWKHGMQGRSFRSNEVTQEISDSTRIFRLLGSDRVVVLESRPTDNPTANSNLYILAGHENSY

[19] = target: MAP/microtubule affinity-regulating kinase 3 (Homo sapiens) (UniProt P27448); test: Inhibition of recombinant full length human MARK3 assessed as residual activity at 1 uM using KKKVSRSGLYRSP as substrate incubated for 40 mins in presence of [gamma-33ATP by scintillation counting based radiometry assay relative to control
Sequence of MAP/microtubule affinity-regulating kinase 3 (Homo sapiens) (P27448 whole entry, looked up, the tested form may be a part): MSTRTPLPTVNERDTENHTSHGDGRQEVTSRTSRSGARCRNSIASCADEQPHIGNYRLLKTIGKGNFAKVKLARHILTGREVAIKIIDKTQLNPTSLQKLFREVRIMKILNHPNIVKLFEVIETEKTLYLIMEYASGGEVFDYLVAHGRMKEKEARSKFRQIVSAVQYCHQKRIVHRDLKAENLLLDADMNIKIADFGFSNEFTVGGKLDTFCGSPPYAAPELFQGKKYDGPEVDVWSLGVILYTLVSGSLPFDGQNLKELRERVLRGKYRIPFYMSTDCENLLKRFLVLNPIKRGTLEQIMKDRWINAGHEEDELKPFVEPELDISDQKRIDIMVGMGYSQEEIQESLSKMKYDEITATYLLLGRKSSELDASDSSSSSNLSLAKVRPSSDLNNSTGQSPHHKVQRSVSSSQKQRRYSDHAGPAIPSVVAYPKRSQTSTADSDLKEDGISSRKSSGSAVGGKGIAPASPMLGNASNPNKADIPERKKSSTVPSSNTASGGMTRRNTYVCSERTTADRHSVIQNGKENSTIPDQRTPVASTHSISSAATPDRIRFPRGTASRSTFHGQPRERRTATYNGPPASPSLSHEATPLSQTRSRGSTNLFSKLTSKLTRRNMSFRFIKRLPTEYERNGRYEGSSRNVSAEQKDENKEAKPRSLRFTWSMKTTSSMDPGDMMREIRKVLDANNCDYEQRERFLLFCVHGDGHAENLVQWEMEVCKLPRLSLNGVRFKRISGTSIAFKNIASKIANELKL

[20] = test system: Fibroblast growth factor receptor 2 (Homo sapiens), P21802 [N549H]; test: Inhibition of recombinant human FGFR2 N549H mutant (456 to 770 residues) assessed as residual activity at 1 uM using GGEEEEYFELVKKKK as substrate at 40 mins in presence of [gamma-33ATP] by scintillation counting based radiometry assay relative to control
[21] = target: Serine/threonine-protein kinase NIM1 (Homo sapiens) (UniProt Q8IY84); test: Inhibition of recombinant full length human NIM1 assessed as residual activity at 1 uM using KKKVSRSGLYRSPSMPENLNRPR as substrate measured after 40 mins in presence of [gamma33P]ATP by scintillation counting method relative to control
Sequence of Serine/threonine-protein kinase NIM1 (Homo sapiens) (Q8IY84 whole entry): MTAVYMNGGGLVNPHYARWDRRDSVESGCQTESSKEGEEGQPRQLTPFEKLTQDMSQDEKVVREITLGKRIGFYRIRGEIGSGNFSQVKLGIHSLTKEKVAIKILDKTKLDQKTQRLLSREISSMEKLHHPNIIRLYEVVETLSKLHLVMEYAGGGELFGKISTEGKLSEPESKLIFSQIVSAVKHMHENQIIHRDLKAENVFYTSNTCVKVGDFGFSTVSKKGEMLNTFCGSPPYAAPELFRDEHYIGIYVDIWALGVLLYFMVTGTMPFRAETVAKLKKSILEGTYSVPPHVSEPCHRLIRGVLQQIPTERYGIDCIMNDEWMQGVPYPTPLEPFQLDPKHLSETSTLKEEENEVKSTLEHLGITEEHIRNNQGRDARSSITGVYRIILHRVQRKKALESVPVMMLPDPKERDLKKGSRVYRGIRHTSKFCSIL

SMILES	Activity [1]	Activity [2]	Activity [3]	Activity [4]	Activity [5]	Activity [6]	Activity [7]	Activity [8]	Activity [9]	Activity [10]	Activity [11]	Activity [12]	Activity [13]	Activity [14]	Activity [15]	Activity [16]	Activity [17]	Activity [18]	Activity [19]	Activity [20]	also measured
N=C1NC(=O)/C(=C\c2ccc(-c3cccc([N+](=O)[O-])c3)o2)S1	79%	89%	97%	111%	102%	75%	100%	99%	8%	97%	108%	78%	93%	65%	105%	51%	103%	102%	100%	96%	Activity [21]: 101%
C=CCOC(=O)c1cc(-c2ccc(/C=C3/NC(=S)NC3=O)o2)ccc1Cl	102%	97%	104%	92%	98%	58%	79%	104%	10%	96%	105%	121%	87%	89%	90%	94%	90%	99%	99%	100%	Activity [21]: 95%
